Patent publication US10539552B2, “Compositions and methods for measuring cellular mechanical stress” (The Regents of the University of California, priority 2014, dated 2020)
Entries after “also recorded” stand apart in the source; their conditions may differ.

How the values were obtained:
CaMKII [1] = biological target: T1, CaMKII (Rattus norvegicus, UniProt P11275); experiment: In vitro CaMKII activity measurement with Camui FRET sensor in HEK cell lysates; format: biochemical
T1 construct: Camui comprises of full length CaMKII with a CFP/YFP pair on either end of the kinase; expressed in transfected cells; host or cells: HEK293 (lysate, cytosolic fraction)
Method: (§1) In Vitro CaMKII activity measurements with Camui sensor. Design and synthesis of the wild-type, phosphorylation resistant, and oxidation resistant Camui constructs were previously described. HEK293 cells were cultured in Eagle's medium plus 5% fetal bovine serum and penicillin/streptomycin for 24 hour and then transfected with plasmids encoding Camui (or a mutant isoform) using a mammalian transfection kit (Stratagene). After an additional 24 hour, Camui expression was checked by fluorescence microscopy. HEK cells expressing Camui were lysed in Ca^2+-free buffer containing 50 mM Tris-HCl buffer (pH 7.5), 5 mM MgCl2, and protease inhibitors. Fluorescence measurements were performed using a MS SpectraMax plate reading spectrophotometer (Molecular Devices) with excitation and emission slits set to 4 nm, excitation wavelength set to 440 nm, emission wavelengths set to 477 nm (FCFP) and 527 nm (FYFP), respectively. The cytosolic fraction of the transfected HEK cells […] Camui fluorescence was measured in the presence of 10 μM CaM and 200 μM Ca^2+. EGTA 1 mM was used to chelate Ca^2+ and autonomous CaMKII activity was measured in the presence of 1 mM EGTA and either 50 μM or 500 μM SNAP.
(§2) CaMKII activity was known to be increased by auto-phosphorylation and by oxidation. Here we measure the effect of nitric oxide (NO) on CaMKII activity using the FRET-based biosensor Camui which detects conformational changes in CaMKII during activation. To determine whether NO can activate CaMKII, we expressed the CaMKII activity sensor Camui in HEK cells and measured autonomous activation induced by the NO donor SNAP. Camui comprises of full length CaMKII with a CFP/YFP pair on either end of the kinase, which produce substantial FRET in the closed (autoinhibited) state. If autoinhibition is disrupted, either directly by Ca^2+/CaM binding or autonomously by post-translational modification of the kinase, FRET is reduced, resulting in an increase in FCFP/FYFP. […] CaMKII is known to be autonomously activated by T286 phosphorylation and by CM280/281 oxidation. To test whether one or both of these mechanisms were responsible for SNAP-induced CaMKII activation, we repeated the HEK cell experiment using mutant versions of Camui lacking either the phosphorylation (T286) or oxidation (CM280/281) target sites. In both cases, SNAP dependent activation of CaMKII was preserved.

CaMKII [2] = experiment: as above; format: biochemical; conditions: Camui lacking phosphorylation (T286) or oxidation (CM280/281) sites
Method: as §1, §2

[3] = tested on: mouse ventricular myocytes (wild-type); experiment: Cell-in-Gel confocal Ca^2+ spark imaging during myocyte contraction under afterload (wild-type); format: cell-based; conditions: wild-type myocytes contracting in Gel7.5%, paced 0.5 Hz, L-NAME 10 mM, L-NPA 5 μM, L-Nio 10 μM, Gp91ds 1 μM, blebbistatin 10 μM
Method: Cell isolation. Wild-type and transgenic mice, 8 weeks old male, were purchased from Jackson Laboratories (USA): C57BL/6J (wild-type), B6.129S4-Nos1tm1Plh/J (NOS1−/−), B6.129P2-Nos3tm1Unca/J (NOS3−/−). Transgenic mouse with R92Q mutation in cardiac troponin T was created in Tardiff s lab (22) and bred in Chen-Izu's lab. A standard enzymatic technique (40) was used to isolate the ventricular myocytes using Worthington collagenase type II and Sigma protease type XIV. All experiments were conducted at 21-22° C.
Cell-in-Gel system. Elastic gel matrix was made of a poly vinyl alcohol (PVA) hydrogel system comprised of underivatized PVA (98 KD) and a tetravalent boronate-PEG crosslinker (12). Freshly isolated myocytes were first suspended in 7% PVA solution; then 7.5% crosslinker solution was added in equal volume (Gel7.5%). Upon mixing, the boronate group crosslinks PVA hydrogel, embedding the cell in the 3D gel matrix. The boronate group also crosslinks the cis-diols of the cell-surface glycans to PVA, thereby tethering the cell surface to the gel. We used Gel7.5% for all the experiments in this study except one group in FIG. 11G using Gel5%.
Confocal imaging of Ca^2+ signals. Myocytes were loaded with Ca^2+ indicator, Fluo-4, and then embedded in the gel. Confocal imaging was performed using standard method (41).
For confocal imaging of the Ca^2+ signals, freshly isolated myocytes were continuously perfused in Tyrode solution containing (in mM): 150 NaCl, 5.4 KCl, 1.2MgCl2, 1 CaCl2, at pH 7.4, loaded with Ca^2+ indicator Fluo-4, and then embedded in the PVA gel. The cell was paced at 0.5 Hz frequency by electrical field stimulation using short (4 ms) depolarization pulses with bipolar switching (switch positive and negative polarity in consecutive stimulus pulses). The platinum electrodes were used in conjunction with continues perfusion of fresh Tyrode solution to maintain constant bath condition (pH, glucose, ionic composition, temperature etc.).
Confocal images were obtained using an Olympus FluoView 1000 Confocal Microscope (inverted configuration) with a water immersion fluorescence objective UPlanSApo 60X, NA1.2, corrected for the thickness of the No. 1 glass coverslip that is used at the bottom of the perfusion chamber. Fluo-4 was excited with 488 nm laser beam (laser power set to 5%), and the emitted fluorescence light was passed through a bandpass filter BA505-605 and collected with a PMT. The PMT voltage, gain, and offset were set to avoid any saturation and to obtain high fidelity images. The line-scan images were obtained using the highest scan speed of 2 μs/pixel.
Ca^2+ sparks were detected automatically using a homemade program based on our spark identification algorithm and adapted for x-t linescans. As in our 2-D program, sparks are identified in two stages. In the first stage, putative sparks are detected based on Cheng et al.'s description and bright but spatially small events were eliminated using the ‘live-or-die’ algorithm described in our previous publication. In the second stage, the putative sparks were classified as sparks or noise based on the statistical sieve as described previously in our publication. This analysis software provides automated and objective (agnostic via statistical sieving) detection and classification of the Ca^2+ signaling events. […]

[4] = tested on: mouse ventricular myocytes; experiment: Systolic Ca^2+ transient and myocyte contraction in-Gel (Fluo-4 confocal / Fura-2 ratio, sarcomere detection); format: cell-based; conditions: for peak systolic Ca^2+ transient (Fura-2 ratio), inhibitor effect: L-NPA 5 μM; for systolic Ca^2+ transient (Fluo-4 confocal): compared to load-free contraction, blebbistatin 10 μM in gel
Excerpt: Mechanical load effects on the myocyte contraction and systolic Ca^2+ transient. To establish that the diastolic spontaneous Ca^2+ sparks are indeed caused by the mechanical load, we examined the Ca^2+ spark rate in the myocytes contracting under different mechanical loads as shown in FIG. 11G. We also examined the systolic Ca^2+ transient and the myocyte contraction under these conditions of varying loads.
Whole cell Ca^2+ transient measurement using Fura-2 ratiometric method. In order to more precisely measure the whole cell Ca^2+ concentration, we used Fura-2 ratiometric method (40) rather than Fluo-4 single wavelength measurement. Fura-2 loading was done by incubating the cells with 2.5 μM Fura-2/AM and 0.75 μM Pluronic-127 (in 20% DMSO) at room temperature for 30 minutes. After washing out Fura-2/AM, the cells were incubated for an additional 45 minutes, and then used for experiment within 2 hours. An IonOptix system (IonOptix Inc., USA) with a Hyperswitch and mounted on the Olympus X71 inverted microscope with a water immersion fluorescence objective UPlanSPao 40×, 1.15 NA, corrected for the thickness of the No. 1 glass coverslip. The excitation light was generated using a high intensity ARC lamp (Cairn). The Hyperswitch (galvanometer based switching between […] and 380 nm at 500 Hz frequency, using a 340/370d/380 filter cube) was used to deliver dual excitation beams at 340 nm and 380 nm, switching between the two wavelengths. Fura-2 fluorescence emission light was passed through a bandpass filter D510/40m, and then collected in a photomultiplier tube (PMT). The gain of the PMT was set to avoid any saturation and to obtain high fidelity photon count.
The Fura-2 fluorescence emission (F) from the excitation at 340 nm and 380 nm were recorded from the cell. The background fluorescence (BG) at 340 nm and 380 nm wavelengths were obtained in the solution and in the gel without cell. The BG signals were found slightly higher in the gel than in solution, but both were substantially lower than the Fura-2 fluorescence emissions from the cell. The Fura-2 fluorescence ratio, RFura, was calculated after background subtraction.
For measuring the systolic Ca^2+ transient, the cell was first paced to reach steady-state (>2 minutes), and then the Fura-2 fluorescence was recorded for at least 10 beats during steady-state. For SR content measurement, after the cell reaching steady-state the field stimulation was stopped to keep the cell at resting state for 15 seconds; then caffeine at high concentration (20 mM) was applied to rapidly deplete the SR load (FIG. 14A,B). The rapidity of the SR Ca^2+ release was accessed by the rising velocity of the caffeine-induced Ca^2+ transient, and the peak Ca^2+ value was used as an index to measure the SR load. […] Since RyR sensitivity to intra-SR [Ca^2+] is steep, we also acknowledge that small changes in SR Ca^2+ that we could not detect could have functional impact.
Myocyte contraction measurement. Contraction measurement using Fluo-4 confocal image was determined from the confocal x-t linescan by the difference in the positions of the left and right boundaries demarcated by the bright fluo-4 signal and the dimmer signal from the PVA gel or the bathing solution. Myocyte length was calculated by converting the fluorescence signal along each x into a binary vector. Fluorescence values above background plus a threshold were considered 1, otherwise 0. The numbers of “1” pixels was then multiplied by a scaling factor (determined by using a Ronchi ruling with 2.5 spacing) to get the cell shortening in microns. The threshold was set to half of the maximum calcium fluorescence.
Contraction measurement using IonOptix system (IonOptix Co., USA) with sarcomere detection was done by using a high speed camera (Myocam-S, 240 up to 1000 frame/s) the record the sarcomere movement during contraction. […]

[5] = myocytes contracting in-Gel, L-Nio 10 μM

T1 sequence (P11275 whole entry): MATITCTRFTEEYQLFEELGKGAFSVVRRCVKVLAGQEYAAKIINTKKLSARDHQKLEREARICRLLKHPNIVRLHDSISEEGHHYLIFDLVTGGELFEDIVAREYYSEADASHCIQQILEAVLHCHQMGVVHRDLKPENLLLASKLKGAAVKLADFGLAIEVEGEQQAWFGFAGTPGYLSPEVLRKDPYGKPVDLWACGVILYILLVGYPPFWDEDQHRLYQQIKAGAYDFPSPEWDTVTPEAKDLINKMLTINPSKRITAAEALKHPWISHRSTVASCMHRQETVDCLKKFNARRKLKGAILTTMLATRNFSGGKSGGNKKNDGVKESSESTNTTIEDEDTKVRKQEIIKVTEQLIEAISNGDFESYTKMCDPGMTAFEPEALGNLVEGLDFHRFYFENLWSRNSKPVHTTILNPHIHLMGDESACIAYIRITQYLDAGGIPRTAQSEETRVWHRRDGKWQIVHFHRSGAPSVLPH

With `CC(=O)N[C@@H](C(=O)O)C(C)(C)SN=O` (racemic) [SNAP] the “autonomous CaMKII activation (FCFP/FYFP)” value (CaMKII [1]; 50 μM SNAP with 1 mM EGTA, compared to EGTA only) was “no effect”, the “autonomous CaMKII activation (FCFP/FYFP)” value (CaMKII [1]; 500 μM SNAP with 1 mM EGTA) was “significant increase in CaMKII activation; also recorded: Autonomous CaMKII activation was seen” and the “CaMKII activation relative to Ca^2+/CaM dependent activity” value (CaMKII [1]; 500 μM SNAP with EGTA) was “about 50 % of Ca^2+/CaM dependent activity”. The “SNAP dependent CaMKII activation in mutant Camui” value (CaMKII [2]) was “preserved; also recorded: not secondary to either phosphorylation (T286A) or oxidation (CM/VV)”.

For `COC(=O)[C@@H](N)CCCNC(=N)N[N+](=O)[O-]` [L-NAME], the “afterload-induced diastolic spontaneous Ca^2+ sparks, drug effect” value [3] was “effectively suppressed Ca^2+ sparks”.

In the case of `CCCN=C(N)NCCC[C@H](N)C(=O)O.Cl` [L-NPA, Nw-Propyl-L-arginine hydrochloride], the “afterload-induced diastolic spontaneous Ca^2+ sparks, drug effect” value [3] is reported as “effectively suppressed Ca^2+ sparks” and the “peak systolic Ca^2+ transient (Fura-2 ratio), inhibitor effect” value [4, 5] is reported as “reduced the Ca^2+ transient”.

For `CC(N)=NCCC[C@H](N)C(=O)O.Cl.Cl` [L-Nio, L-Nio-dihydrochloride], the “afterload-induced diastolic spontaneous Ca^2+ sparks, drug effect” value [3] was “failed to suppress Ca^2+ sparks”, the “peak systolic Ca^2+ transient (Fura-2 ratio), inhibitor effect” value [4, 5] was “reduced the Ca^2+ transient” and the “Tau of the Ca^2+ transient decline” value [4, 5] was “slowed the speed of Ca^2+ transient decline”.

For `Cc1ccc2c(c1)C(=O)C1(O)CCN(c3ccccc3)C1=N2` (stereo not drawn) [blebbistatin], the “afterload-induced diastolic spontaneous Ca^2+ sparks, drug effect” value [3] was “restored the Ca^2+ transient and spark rate to the load-free condition”, the “afterload-induced diastolic spontaneous Ca^2+ sparks, drug effect” value ([3]; listed as Blebbistatin) was “normalization of Ca^2+ spark rate” and the “systolic Ca^2+ transient (Fluo-4 confocal)” value [4] was “restored the Ca^2+ transient and spark rate to the load-free condition”. For the same compound, the “systolic Ca^2+ transient (Fluo-4 confocal)” value ([4]; listed as Blebbistatin) was “restored the Ca^2+ transient to the load-free condition” and the “myocyte contraction amplitude (fractional shortening)” value ([4]; in gel versus load-free, blebbistatin 10 μM) was “decoupled cell contraction from Ca^2+ signaling”.
